Assay results from ChEMBL document CHEMBL1121753 (J Med Chem, 1981).

Key:
[1] = Compound was tested for dose required to kill 50 % of ADJ/PC6 mouse plasma cell tumor in a group
ADJ/PC6 = experiment: Compound was tested for dose producing 90% reduction in tumor weight, in ADJ/PC6 mouse plasma cell tumor
[2] = Therapeutic index as the ratio of LD50 to ED50 of the compound

Compound: O=P1(N(CCCl)CCCl)NCCCO1 (stereo unspecified) [CYCLOPHOSPHAMIDE ANHYDROUS]
- LD50 [1]: 260 mg/kg
- ED90 (ADJ/PC6): 2.25 mg/kg
- selectivity ratio [2]: 116

Compound: [2H]C1([2H])CNP(=O)(N(CCCl)CCCl)OC1 (stereo unspecified)
- LD50 [1]: 700 mg/kg
- ED90 (ADJ/PC6): 12 mg/kg
- selectivity ratio [2]: 58
